Test results as given in patent US11234957B2, “Process for preparing water soluble forskolin” (SciPharm S.à.r.l., priority 2017, dated 2022).
Where two headings read alike, the source gives them in different places.

Experiments:
adenylyl cyclase = assay: Cell culture test - cAMP assay; assay type: cell-based; details: versus forskolin dissolved in DMSO; FIG. 4 and summary
Description: The method was performed at the Institute of Pharmacology, Medical University […] of Vienna, Prof. Michael Freissmuth. The forskolin-CD complex was compared with an established method, where forskolin is dissolved and diluted in DMSO. The method has been described previously (Hussain F, et al., BMC Pharmacology 11 (2013), Suppl 2, A6) and is a test platform for the assessment of the chemical induction of stem cells.
Also, the lack of DMSO, which is considered to be a PDE inhibitor (see above), had no […] effect on the results based on preliminary theoretical and practical aspects. The following batches were tested in aliquot molar concentrations as an activator of adenylyl cyclase: […]

[1] = cited from earlier work
[2] = Maximum solubility of forskolin in aqueous hydroxypropyl-cyclodextrin solutions (Laurenza et al., 1987); assay type: physicochemical
Description: Aqueous solutions of forskolin had also been produced by dissolving forskolin in solutions of hydroxypropyl-γ-cyclodextrin.

Structure (SMILES)	activation of adenylyl cyclase (adenylyl cyclase)	Maximum solubility of forskolin ([1]; in 40% (w/v) aqueous solution of hydroxypropyl-ß-cyclodextrin)	Maximum solubility of forskolin ([1]; in 40% (w/v) aqueous solution of hydroxypropyl-γ-cyclodextrin)	increase of solubility ([2]; in 40% (w/v) hydroxypropyl-ß-cyclodextrin)	increase of solubility ([2]; in 40% (w/v) hydroxypropyl-γ-cyclodextrin)
COC(=O)[C@@H]1C[C@H](O)C(=O)[C@H]2[C@@]1(C)CC[C@H]1C(=O)O[C@H](c3ccoc3)C[C@]21C [salvinorin B]	Inactive	–	–	–	–
COC(=O)[C@@H]1C[C@H](OC(C)=O)C(=O)[C@H]2[C@@]1(C)CC[C@H]1C(=O)O[C@H](c3ccoc3)C[C@]21C [salvinorin A]	Inactive	–	–	–	–
C=C[C@@]1(C)CC(=O)[C@]2(O)[C@@]3(C)[C@@H](O)CCC(C)(C)[C@@H]3[C@H](O)[C@H](OC(C)=O)[C@@]2(C)O1 [forskolin, 7-beta-acetoxy-8,13-epoxy-1-alpha, 6-beta, 9-alpha-trihydroxylabd-14-en-11-one]	–	2.5 mM	9.8 mM	approx. 16 fold	approx. 65 fold
